Square brackets hold non-standard residues; d marks the D form. Peptide text beside a SMILES is read from it. * marks the point of attachment. Piperidinyl(4-(1-Pro-OH)) = O=C(O)[C@@H]1CCCN1C1CCN(*)CC1; dDab = NCC[C@@H](N)C(=O)O
What was measured:
[1] = tested on: capsaicin-induced ocular pain; experiment: Capsaicin-induced ocular pain, palpebral opening in rabbits; type: in vivo, albino New Zealand strain rabbits; conditions: 10-30 min. post capsaicin
[2] = in vitro; conditions: human, Caco-2
[3] = tested on: CYP1A; experiment: Cytochrome P450 CYP1A inhibition in human liver microsomes (ethoxyresorufin); type: in vitro ADME; conditions: percent remaining CYP activity, 10 uM test compound, 15 minutes
Experimental: Inhibition of cytochrome P450 oxidase isozymes CYP1A, CYP2C9, CYP2C19, CYP2D6 and CYP3A4 by synthetic peptide amide compounds of the invention was determined according to the following methods performed by Cerep (Seattle, Wash.):
In the cytochrome P450 CYP1A assay, human liver microsomes (0.2 mg/ml protein) were incubated for 15 minutes at 37° C. with 10 uM test compound, 1 uM ethoxyresorufin, 1.3 mM NADP, 3.3 mM glucose-6-phosphate and 0.4 U/ml glucose-6-phosphate dehydrogenase. In the absence of test compound, the ethoxyresorufin added as substrate is oxidized to resorufin, and in the presence of an inhibitor of the CYP isozyme, the amount of resorufin produced is reduced. Furafylline was used as a reference inhibitor.
In each assay, the percent inhibition of the cytochrome P450 CYP P450 isozyme was determined as one hundred times the ratio of (1—the amount of product in the sample in the presence of the test compound) divided by the amount of product in the sample containing untreated isozyme.

[4] = tested on: acetic acid-induced writhing in mice; experiment: Acetic acid-induced writhing assay in mice; type: in vivo, ICR mice; conditions: ICR mice, administered subcutaneously
Experimental: 12: 525-562; Ramabadran and Bansinath (1986) Pharm. Res. 3: 263-270]. Intraperitoneal administration of dilute acetic acid solution causes a writhing behavior in mice. A writhe is defined as a contraction of the abdominal muscles accompanied by an extension of the forelimbs and elongation of the body. The number of writhes observed in the presence and absence of test compounds is counted to determine the analgesic activity of the compounds.
Each day a writhing assay was performed, a vehicle control group of mice (n=6-8) that were treated identically to the test group (except that test compound was omitted from the injection dose) was always included and the average total number of writhes in this group used as the absolute reference point defining 0% decrease in pain perception for all other mice receiving a test compound on that day. Specifically, the total number of writhes of each mouse receiving the test compound was converted to % decrease in pain perception according to the following equation:
[formula] Where Wv is the mean number of writhes in vehicle-treated group and Wc is the number of writhes in compound-treated mouse.
Male ICR mice, 23-37 grams in weight, were weighed and placed in individual observation chambers (usually a 4000 ml glass beaker) with a fine layer of SANI-CHIPS rodent bedding at the bottom. […] After administration of the compound or vehicle control, mice were returned to their individual observation chambers awaiting the intraperitoneal administration of acetic acid solution. […] and acetic acid injection, a dose corresponding to 10 ml/kg of a 0.6% (v/v) acetic acid solution was then injected into the right lower quadrant of the abdomen. Immediately after the injection, the mouse was returned to its observation chamber and the recording of the number of writhes begun immediately. The number of writhes was counted over a 15-min period starting from the time of acetic acid injection, the data being collected over three separate 5 minute time periods (0-5 min, 5-10 min, and 10-15 min).
The data were reported as ED50, and Hill coefficient. […] The Hill coefficient is expressed as the arithmetic mean±sem calculated from the values obtained from the animals.
For dose-response analysis, raw data were converted to % maximum possible effect (% MPE) using the formula: % MPE=((test score−vehicle-treated score)/(0−vehicle-treated score))*100. Raw data were analyzed using a one-way ANOVA followed by Dunnett's post-tests. […] Compounds were administered by the intravenous route.

[5] = Inhibition of locomotion in mice (locomotion reduction assay, sedation); set-up: species or system ICR mice; conditions: mouse, in vivo, sc, administered subcutaneously, sedative effect
Experimental: To determine the potential sedative effect of test compounds, the extent of locomotion reduction after the administration of the test compound or vehicle control can be determined and compared with a specialized apparatus designed for this purpose (Opto-Varimex Activity Meter). At the start of each experiment, each mouse was weighed and examined to determine good health. […] The subcutaneous injection was performed in the back of the neck of the mouse, pinched in a “tent” to allow proper access for the syringe needle. After injection, each animal was placed individually in Plexiglas boxes (43 cm×43 cm) inside the Opto-Varimex Activity Meter apparatus. Before the animal was placed in the apparatus, a thin layer of SANI-CHIPS rodent bedding was placed on the bottom of the Plexiglas box to provide a comfortable environment. Each Opto-Varimex Activity Meter apparatus was then turned on and data acquisition begun by the ATM3 Auto-Track System. The data were processed and results expressed in the same way as described for the writhing assay data in Example 47.
Inhibition of acetic acid-induced writhing by a compound is an indication of an analgesic effect (also called an antinociceptive effect). Similarly, a reduction in locomotion caused by administration of the compound can be used as a measure of its general sedative effect.

[6] = molecular target: CYP3A4 (Homo sapiens (Human), UniProt P08684); experiment: Cytochrome P450 CYP3A4 inhibition in human liver microsomes (midazolam); conditions: percent remaining CYP activity, 10 uM test compound, 20 minutes
[7] = molecular target: CYP2C9 (Homo sapiens (Human), UniProt P11712); experiment: Cytochrome P450 CYP2C9 inhibition in human liver microsomes (tolbutamide); conditions: percent remaining CYP activity, 10 uM test compound, 15 minutes
[8] = molecular target: CYP2C19 (Homo sapiens (Human), UniProt P33261); experiment: Cytochrome P450 CYP2C19 inhibition in human liver microsomes (omeprazole); conditions: percent remaining CYP activity, 10 uM test compound, 15 minutes
[9] = molecular target: CYP2D6 (Homo sapiens (Human), UniProt P10635); experiment: Cytochrome P450 CYP2D6 inhibition in human liver microsomes (dextromethorphan); conditions: percent remaining CYP activity, 10 uM test compound, 15 minutes
[10] = Membrane permeability assay, Caco-2 TC7 monolayers, apical-to-basolateral (Cerep); conditions: human
[11] = molecular target: human kappa opioid receptor (hKOR) (Homo sapiens (Human), UniProt P41145); experiment: cell-based; conditions: HEK293, read-out: hKOR Efficacy(%)
[12] = molecular target: mouse kappa opioid receptor (mKOR) (Mus musculus (Mouse), UniProt P33534); experiment: cell-based; conditions: read-out: mKOR Efficacy(%)
[13] = Pharmacokinetics in ICR mice after subcutaneous injection; conditions: mouse, in vivo, sc, 1 mg/kg, time for plasma concentration to fall by 50% after maximum
Experimental: A single bolus of the synthetic peptide amide compound was administered by subcutaneous injection to ICR mice (n=6, males, body wt 23-37 g, Charles River, Wilmington, Mass.) and plasma samples taken at 5, 10, 15, 20, 30 60, 90, 120, and 180 minutes post-injection.
Quantitation was performed against a calibration curve of the analyte in blank Cynomolgus monkey plasma using the same internal standard. Data analysis and the extraction of pharmacokinetic parameters were performed with the program PK Solutions 2.0 (Summit Research Services, Ashland, Ohio, USA).

[14] = Pharmacokinetics in cynomolgus monkeys after intravenous bolus; conditions: cynomolgus monkey, in vivo

COc1ccc([C@@H]2Sc3ccccc3N(CCN(C)C)C(=O)[C@@H]2OC(C)=O)cc1 [Diltiazem, diltiazem, reference compound]
Mean palpebral opening (% Control) ([1]; Table VII, 10 mM, five animals): 74.6 % Control
Mean palpebral opening (% Control) ([1]; Table VIII, 10 mM, ten animals): 77.6 % Control

CC(CCc1ccccc1)NCC(O)c1ccc(O)c(C(N)=O)c1 (stereo not drawn) [Labetalol, labetalol]
Papp A→B at 60 min, 10 uM [2]: 9.9 ×10⁻⁶ cm/s

CNCCCC[C@@H](NC(=O)[C@@H](CC(C)C)NC(=O)[C@@H](Cc1ccccc1)NC(=O)[C@H](N)Cc1ccccc1)C(=O)N1CCC(N)(C(=O)O)CC1 [Compound (3), D-Phe-D-Phe-D-Leu-(ε-Me)D-Lys-[ω(4-aminopiperidine-4-carboxylic acid)]-OH]
Percent Activity of CYP1A [3]: 93.1%
ED50 in the acetic acid-induced writhing assay [4]: 0.052 mg/kg
ED50 [5]: 2.69 mg/kg
Mean palpebral opening (% Control) ([1]; Table VII, 10 mg/ml, five animals): 76.0 % Control
Percent Activity of CYP3A4 [6]: 94.3%
Percent Activity of CYP2C9 [7]: 97.4%
Percent Activity of CYP2C19 [8]: 103.2%
Percent Activity of CYP2D6 [9]: 99.5%
Papp A→B at 60 min, 10 uM [10]: < 0.02 ×10⁻⁶ cm/s

CC(C)NCC(O)COc1cccc2ccccc12 (stereo not drawn) [Propranolol, propranolol]
Papp A→B at 60 min, 10 uM [2]: 53.8 ×10⁻⁶ cm/s

CN1CC[C@]23c4c5ccc(O)c4O[C@H]2[C@@H](O)C=C[C@H]3[C@H]1C5 [Morphine, morphine, reference compound]
Mean palpebral opening (% Control) ([1]; Table VIII, 10 mg/ml, ten animals): 74.8 % Control

CC(C)C[C@@H](NC(=O)[C@@H](Cc1ccccc1)NC(=O)[C@H](N)Cc1ccccc1)C(=O)N[C@H](CCN)C(=O)N1CCC(N2CCC[C@H]2C(=O)O)CC1 [Compound (12), D-Phe-D-Phe-D-Leu-D-Dbu4N-(4-piperidinyl)-L-prolinel-OH] (H-[dF][dF][dL][dDab]-{Piperidinyl(4-(1-Pro-OH))})
Emax [11]: 100%

CNCCCC[C@@H](NC(=O)[C@@H](CC(C)C)NC(=O)[C@@H](Cc1ccccc1)NC(=O)[C@H](N)Cc1ccccc1)C(=O)N1CCC(N2CCC[C@H]2C(=O)O)CC1 [Compound (6), D-Phe-D-Phe-D-Leu-(ε-Me)D-Lys-[N-(4-piperidinyl)-L-proline]-OH]
Emax [12]: 89%
Percent Activity of CYP1A [3]: 89.5%
half-life [13]: 22 min
half-life [14]: 58.6 min
Percent Activity of CYP3A4 [6]: 93.6%
Percent Activity of CYP2C9 [7]: 92.1%
Percent Activity of CYP2C19 [8]: 97.2%
Percent Activity of CYP2D6 [9]: 93.9%
Papp A→B at 60 min, 10 uM [10]: < 0.02 ×10⁻⁶ cm/s

CC[C@]1(O)C[C@@H]2CN(CCc3c([nH]c4ccccc34)[C@@](C(=O)OC)(c3cc4c(cc3OC)N(C)[C@H]3[C@@](O)(C(=O)OC)[C@H](OC(C)=O)[C@]5(CC)C=CCN6CC[C@]43[C@@H]65)C2)C1 [Vinblastine, vinblastine]
Papp A→B at 60 min, 10 uM [2]: < 0.2 ×10⁻⁶ cm/s

CN(C(=O)C(c1ccccc1)c1ccccc1)[C@H](CN1CC[C@H](O)C1)c1ccccc1 [Asimadoline, asimadoline, reference compound]
Papp A→B at 60 min, 10 uM [10]: 37.5 ×10⁻⁶ cm/s

CC(C)C[C@@H](NC(=O)[C@@H](Cc1ccccc1)NC(=O)[C@H](N)Cc1ccccc1)C(=O)N[C@H](CCCCNC(C)C)C(=O)N1CCC(N)(C(=O)O)CC1 [Compound (9), D-Phe-D-Phe-D-Leu-(8-iPr)D-Lys-[ω(4-aminopiperidine-4-carboxylic acid)]-OH]
Emax [11]: 100%

CNCCCC[C@@H](NC(=O)[C@@H](CC(C)C)NC(=O)[C@@H](Cc1ccccc1)NC(=O)[C@H](N)Cc1ccccc1)C(=O)N1CCCN(C(=N)N)CC1 [Compound (1), D-Phe-D-Phe-D-Leu-(ε-Me)D-Lys-[4-Amidinohomopiperazine amide]]
Percent Activity of CYP1A [3]: 89.8%
Percent Activity of CYP3A4 [6]: 92.5%
Percent Activity of CYP2C9 [7]: 93.2%
Percent Activity of CYP2C19 [8]: 98.5%
Percent Activity of CYP2D6 [9]: 96.0%
Papp A→B at 60 min, 10 uM [10]: < 0.1 ×10⁻⁶ cm/s

From patent US9359399B2, “Synthetic peptide amides” (Cara Therapeutics, Inc., priority 2006, dated 2016)
